The values that follow come from patent US20040063790A1, “Methods for inhibition of angiogenesis” (The Scripps Research Institute, priority 1996, published 2004).

[ ]: non-standard residue; d: D form.

The target in experiment [1] is T1, immobilized αvβ3 receptor (Homo sapiens, UniProt P05106+P06756).
T1 construct: selected purified integrins were separately immobilized in Titertek microtiter wells
The experiment is described as follows: Ligand receptor binding assay with ELISA detection. Here is the method: In addition, the ability of peptides to inhibit the binding of either MMP-2 or VN to immobilized αvβ3 was assessed with peptides 69601 (SEQ ID NO: 6) and 66203 (SEQ ID NO: 5).
On the technique in general: In an ELISA, binding on a coated surface is turned into a signal by an enzyme label.

Experiment [2] has as its system bFGF-induced angiogenesis. The experiment is described as follows: CAM assay, growth factor-induced angiogenesis, intravenous application. The experiment is classed as in vivo, chick. To be noted: for inhibition of bFGF-induced angiogenesis (branch points): intravenous 18 hours after bFGF induction, FIG. 12. How it is done: J. Pathol., 79:597 (1975). CAMs were prepared from chick embryos for subsequent induction of angiogenesis and inhibition thereof as described in Examples 4 and 5, respectively. Ten day old chick embryos were obtained from McIntyre Poultry (Lakeside, Calif.) and incubated at 37° C. with 60% humidity. A small hole was made through the shell at the end of the egg directly over the air sac with the use of a small crafts drill (Dremel, Division of Emerson Electric Co. Racine Wis.). A second hole was drilled on the broad side of the egg in a region devoid of embryonic blood vessels determined previously by candling the egg. […] A 1.0 centimeter (cm)×1.0 cm square window was cut through the shell over the dropped CAM with the use of a small model grinding wheel (Dremel). The small window allowed direct access to the underlying CAM.
Angiogenesis was induced by placing a 5 millimeter (mm)×5 mm Whatman filter disk (Whatman Filter paper No.1) saturated with Hanks Balanced Salt Solution (HBSS, GIBCO, Grand Island, N.Y.) or HBSS containing 150 nanograms/milliliter (ng/ml) recombinant basic fibroblast growth factor (bFGF) (Genzyme, Cambridge, Mass.) on the CAM of a 10-day chick embryo in a region devoid of blood vessels and the windows were latter sealed with tape. In other assays, 125 ng/ml bFGF was also effective at inducing blood vessel growth. For assays where inhibition of angiogenesis ws evaluated with intravenous injections of antagonists, angiogenesis was first induced with 1-2 μg/ml bFGF in fibroblast growth medium. Angiogenesis was monitored by photomicroscopy after 72 hours. CAMs were snap frozen, and 6 um cryostat sections were fixed with acetone and stained by immunofluorescence as described in Example 3C with 10 μg/ml of either anti-β1 monoclonal antibody CSAT or LM609.
For CAM preparations in which angiogenesis was induced with 1-2 μg/ml bFGF as previously described, synthetic peptides 69601 (control) and 66203 (SEQ ID NO: 5) were separately intravenously injected into CAM preparations 18 hours after bFGF induction of angiogenesis. The preparations were maintained for an additional 36-40 hours after which time the number of branch points were determined as previously described.
In other assays, peptide 85189 (SEQ ID NO: 15) was evaluated for inhibiting bFGF-induced angiogenesis in the CAM assay over a dosage range of 10 μg/embryo to 300 μg/embryo. The assay was performed as previously described.
In still further assays, peptide 85189 was compared to peptides 69601 and 66203 for anti-angiogenesis activity. The assay was performed as described above with the exception that 50 μg peptide were used.
The effectiveness of the different salt formulations of peptide 85189 was also evaluated in similar bFGF-induced CAM assays. The peptides were used at 100 μg/embryo. […] Untreated CAMs, labeled as “no cytokine” had approximately […] as many branch points as that seen with bFGF treatment, respectively 70 versus 190.
With the above-described protocol, the effect of MMP-2 fusion proteins, CTMMP-2(2-4), also referred to as CTMMP-2(445-467) and CTMMP-2(10-1), also referred to as CTMMP-2(274-637) was also evaluated. The assay was performed as previously described with the exception that 50 μg of fusion protein was administered to the bFGF-treated embryos. The effect of fusion protein treatment was assessed at 24 hours, 48 hours and 72 hours.
The 10 day old CAM preparation was used as previously described in Example 5A. Twenty-four hours after bFGF-induced angiogenesis was initiated, the organic peptidomimetics referred to as compounds 16 (81218), 17 (87292) and 18 (87293) were separately intravenously injected into the CAM preparation in a volume of 100 μl at a concentration of 1 mg/ml (100 μg/embryo) in 20% tetraglycol-PBS at pH 7.0. In parallel assays, compounds 7 (96112), 9 (99799), 10 (96229), 12 (112854) and 14 (96113) were similarly evaluated. […]

Experiment [3] deals with human M21-L melanoma tumor. Nature of the experiment: Tumor regression in the CAM assay, M21-L. It counts as in vivo, chick. How it is done:
As described in Example 5, in addition to visually assessing the effect of anti-αvβ3 antagonists on growth factor or tumor induced angiogenesis, the effect of the antagonists was also assessed by measuring any changes to the tumor mass following exposure. For this analysis, the tumor-induced angiogenesis CAM assay system was prepared as described in Example 4C. At the end of the 7 day incubation period, the resulting tumors were resected from the CAMs and trimmed free of any residual CAM tissue, washed with 1 ml of phosphate buffer saline and wet weights were determined for each tumor.
To further assess the effects of αvβ3 antagonists on tumor growth and survival, fragments of human melanoma and fragments of carcinomas of the lung, pancreas, and larynx were placed on CAMS of 10-day old embryos as described in Example 3A.
Human M21-L melanoma tumor fragments (50 mg) were implanted on the CAMs of 10 day old embryos as described in Example 3A and 3C. Twenty four hours later, embryos received a single intravenous injection of 300 μg/100 μl of either the cyclo-RADfV (69601) and or cyclo-RGDfV (66203). After a total of 72 hours, tumors were removed, examined morphologically, and photographed with a stereo microscope.
Additional tumor regression assays were performed with the αvβ3-reactive peptide 85189 (SEQ ID NO: 15) against 69601 as a control. […]

T1 sequence (P06756 31-889 limits assumed): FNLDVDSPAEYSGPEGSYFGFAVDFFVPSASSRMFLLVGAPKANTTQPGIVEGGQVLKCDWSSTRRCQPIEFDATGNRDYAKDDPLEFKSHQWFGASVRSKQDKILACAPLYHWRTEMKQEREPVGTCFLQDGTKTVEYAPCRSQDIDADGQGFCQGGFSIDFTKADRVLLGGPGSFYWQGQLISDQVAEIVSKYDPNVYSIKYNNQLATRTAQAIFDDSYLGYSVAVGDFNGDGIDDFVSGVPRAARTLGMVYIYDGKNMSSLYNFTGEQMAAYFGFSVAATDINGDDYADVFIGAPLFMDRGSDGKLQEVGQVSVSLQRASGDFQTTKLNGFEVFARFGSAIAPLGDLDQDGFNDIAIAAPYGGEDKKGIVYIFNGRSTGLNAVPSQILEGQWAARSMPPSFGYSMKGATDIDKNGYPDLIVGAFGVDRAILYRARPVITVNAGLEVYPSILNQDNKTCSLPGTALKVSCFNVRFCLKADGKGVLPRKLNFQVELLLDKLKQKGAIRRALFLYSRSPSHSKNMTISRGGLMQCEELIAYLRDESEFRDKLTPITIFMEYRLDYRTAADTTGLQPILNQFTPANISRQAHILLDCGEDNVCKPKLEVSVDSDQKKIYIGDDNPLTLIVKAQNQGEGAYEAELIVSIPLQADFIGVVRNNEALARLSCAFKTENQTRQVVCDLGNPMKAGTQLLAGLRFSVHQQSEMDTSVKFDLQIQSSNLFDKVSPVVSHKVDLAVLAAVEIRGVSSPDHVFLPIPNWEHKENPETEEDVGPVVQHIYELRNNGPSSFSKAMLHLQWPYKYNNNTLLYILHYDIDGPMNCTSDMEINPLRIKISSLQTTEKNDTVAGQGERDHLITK
T1 sequence (P06756 891-1048 partner limits assumed): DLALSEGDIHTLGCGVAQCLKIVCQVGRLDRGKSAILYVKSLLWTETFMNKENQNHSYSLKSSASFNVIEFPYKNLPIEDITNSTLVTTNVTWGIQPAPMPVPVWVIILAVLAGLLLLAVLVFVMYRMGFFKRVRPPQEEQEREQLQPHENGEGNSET
T1 sequence (P05106 27-788): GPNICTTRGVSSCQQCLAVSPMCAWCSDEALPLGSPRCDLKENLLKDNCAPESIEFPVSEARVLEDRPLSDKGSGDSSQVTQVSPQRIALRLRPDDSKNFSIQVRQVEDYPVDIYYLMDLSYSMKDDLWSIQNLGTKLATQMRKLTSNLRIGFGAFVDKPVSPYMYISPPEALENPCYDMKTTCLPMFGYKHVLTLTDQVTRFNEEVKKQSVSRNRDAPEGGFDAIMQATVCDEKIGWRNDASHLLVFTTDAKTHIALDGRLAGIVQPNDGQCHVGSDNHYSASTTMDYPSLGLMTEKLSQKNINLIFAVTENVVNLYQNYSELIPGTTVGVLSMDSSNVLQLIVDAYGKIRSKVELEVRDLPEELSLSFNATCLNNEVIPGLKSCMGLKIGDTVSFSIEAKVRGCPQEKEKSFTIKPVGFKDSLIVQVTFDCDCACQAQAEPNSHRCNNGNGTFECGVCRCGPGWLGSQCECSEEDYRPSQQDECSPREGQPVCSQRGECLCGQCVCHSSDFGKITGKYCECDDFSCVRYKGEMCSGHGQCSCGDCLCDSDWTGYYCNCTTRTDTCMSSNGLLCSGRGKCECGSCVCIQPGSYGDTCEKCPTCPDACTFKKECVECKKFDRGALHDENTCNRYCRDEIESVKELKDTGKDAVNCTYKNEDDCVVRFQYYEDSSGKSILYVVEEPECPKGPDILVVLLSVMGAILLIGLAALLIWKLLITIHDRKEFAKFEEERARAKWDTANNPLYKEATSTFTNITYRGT

As to cyclo (RGDfV) [Peptide 66203], the “inhibition of binding of MMP-2 or VN to immobilized αvβ3” value in experiment [1] is listed as “effective at inhibiting the binding of either substrate”. In experiment [2] (50 μg peptide, FIG. 14), the “inhibition of bFGF-mediated angiogenesis” value was “effective inhibitors of bFGF-mediated angiogenesis”. In experiment [2] (assays of Example 5), the “inhibiting angiogenesis, HCl versus TFA peptide” value was “slightly more effective”. The “inhibition of bFGF-induced angiogenesis (branch points)” value in experiment [2] is “completely inhibited”. For the same substance, the “inhibition of vessel formation in tumor” value in experiment [3] (single intravenous injection of 300 μg/100 μl, 72 hours) was “inhibited vessel formation”.

Take “cyclo (RADfV) (cyclo(RAD[dF]V); SMILES CC(C)[C@@H]1NC(=O)[C@@H](Cc2ccccc2)NC(=O)[C@H](CC(=O)O)NC(=O)[C@H](C)NC(=O)[C@H](CCCNC(=N)N)NC1=O) [Peptide 69601, reference compound]”: the “inhibition of binding of MMP-2 or VN to immobilized αvβ3” value in experiment [1] is “failed to have an effect with either ligand”. Further, the “inhibition of bFGF-induced angiogenesis, salt formulations” value in experiment [2] (100 μg/embryo) is reported as “no effect on inhibiting angiogenesis”. Moreover, in experiment [2] (100 μg/embryo, bFGF alone 190, no cytokine 70), the “number of branch points” value is 230 branch points. Besides, the “inhibition of bFGF-induced angiogenesis (branch points)” value in experiment [2] is recorded as “absence of inhibition”. In experiment [3] (100 μg intravenously 18 hours post-implantation, FIG. 16), the “effect on tumor weight, M21-L” value is on record as “lack of effect”.
